What all share (format): cell-based, Hepatitis C virus
One assay relates to 1b, BB7 replicon (WT). In words: Replicon 3-day assay, wild type. The conditions noted are these: read-out: EC50 (μM or pg/ml) ± SD. How it is done:
(§1) pBB7-replicon variant DNAs were linearized with Sca I, and in vitro transcription was performed using Ambion's […]® T7 High Yield Transcription kit (Austin, Tex.). Purified RNA transcripts were electroporated into Huh-7 cells in quadruplicates using a Biorad GENE PULSER® Electroporation System (Setting: 270V, 950 μF) (Hercules, Calif.). Stably transfected replicon variant cell lines were initially selected with 0.25 mg/ml G418 and stepped up to 1 mg/ml before further testing. One cell plate was stained with Crystal Violet to visualize the number of colonies and determine the colony formation efficiency. Individual cell clones from each plate were pooled and expanded for drug susceptibility testing.
(§2) The contribution of individual amino acid changes on drug resistance was assessed in replicon variants containing single amino acid mutations in NS5B in the background of the genotype 1b, BB7 adaptive replicon (Blight et al. (2000) Science 290:1972-74).
(§3) Drug susceptibility of the replicon-containing cells to various compounds was evaluated as described previously (Howe et al. (2004) Antimicrobial Agents Chem. 48:4813-21). Briefly, cells were treated with increasing concentrations of compounds in medium containing 2% FCS and no G418 for three days at 37° C. and 5% CO2. After incubation, total RNA from the replicon-containing cells was isolated. The levels of HCV, glyceraldehyde 3-phosphate dehydrogenase (GAPDH) and ribosomal (rRNA) RNAs were quantified using TAQMAN® (PE Applied Biosystems, Foster City, Calif.) reverse transcriptase PCR reactions. The amounts of HCV, 18S ribosomal, and GAPDH RNAs in each sample were estimated by comparing the number of cycles during the exponential phase of the PCR amplification with those in the corresponding standard curves. HCV RNA standards used for the construction of the standard curve were prepared by extracting the total RNA from the Clone A cells. The RNA sample was sent to National Genetics Institute to quantify HCV RNA. Total RNA extracted from Clone A cells was quantified by O.D.260 measurement and used for construction of the standard curves of rRNA and GAPDH. The concentrations of the compounds that inhibit 50% of the HCV RNA level (EC50) were determined using the MDL® LIFE SCIENCE WORKBENCH® (LSW) Data Analysis software (MDL Information Systems, San Leandro, Calif.) in Microsoft EXCEL®. The amounts of HCV or GAPDH RNAs in the samples were expressed as HCV RNA (copies) or GAPDH (ng), respectively, per μg of total RNA using rRNA as a marker for total RNA measurement.
In general terms: In antiviral work, replicon cells carry a viral genome segment that copies itself.

The next assay has as its system 1b, BB7-C316Y replicon. In words: Replicon variant 3-day assay. The conditions noted are these: for Fold Resistance: C316Y replicon vs 1b, BB7 (WT); for EC50: read-out: EC50 (μM or pg/ml) ± SD. How it is done: as §1, §2, §3
In assay [1] the test system is 1b, BB7 replicon variants with single NS5B mutations. Kind of assay: Replicon variant assay, several variants taken together. The conditions noted are these: replicon variants with HCV-796-associated mutations. How it is done: as §1, §2, §3

Structures are written as SMILES. Where two headings read alike, the source gives them in different places.

For `NC(=O)c1ncn([C@@H]2O[C@H](CO)[C@@H](O)[C@H]2O)n1` [RBV, 1-β-D-ribofuranosyl-1H-1,2,4-triazole-3-carboxamide, reference compound], the EC50 with 1b, BB7 replicon (WT) (Hepatitis C virus) amounted to 133 ± 40.5 µM; in the assay on 1b, BB7-C316Y replicon (Hepatitis C virus) it was 201 ± 36.7 µM. Also, the “inhibition of the C316Y replicon compared with wild type (in words)” value in the assay with 1b, BB7-C316Y replicon (C316Y replicon variant vs wild type replicon) was “as efficiently as in the wild type replicon”. In the assay on 1b, BB7-C316Y replicon, the “Fold Resistance” value was determined as 1.8 fold. The “susceptibility of HCV-796-resistant replicon variants to other antiviral agents (in words)” value in assay [1] (listed as Ribavirin) is reported as “inhibits”; in assay [1] (listed as ribavirin), “remained susceptible”.
As for `CCC[C@]1(CC(=O)O)OCCc2c1[nH]c1c(C)ccc(C#N)c21` [HCV-371, [(1R)-5-cyano-8-methyl-1-propyl-1,3,4,9-tetrahydropyano[3,4-b]indol-1-yl]acetic acid], the EC50 in the assay on 1b, BB7 replicon (WT) (1b, BB7 (WT) replicon) was 12.2 ± 1.8 µM; in the assay with 1b, BB7-C316Y replicon (C316Y replicon) it was 10.8 ± 0.8 µM. Further, the “Fold Resistance” value with 1b, BB7-C316Y replicon is 0.9 fold.

The values are drawn from patent US20080182895A1 (priority 2006, published 2008).
